According to BindingDB's records for PubMed 28189086 (Texas Southern University, 2017):

biological target: Maltase-glucoamylase (Homo sapiens, UniProt O43451); experiment: Inhibition of Alpha-glucosidase (unknown origin)
Sequence (O43451 whole entry): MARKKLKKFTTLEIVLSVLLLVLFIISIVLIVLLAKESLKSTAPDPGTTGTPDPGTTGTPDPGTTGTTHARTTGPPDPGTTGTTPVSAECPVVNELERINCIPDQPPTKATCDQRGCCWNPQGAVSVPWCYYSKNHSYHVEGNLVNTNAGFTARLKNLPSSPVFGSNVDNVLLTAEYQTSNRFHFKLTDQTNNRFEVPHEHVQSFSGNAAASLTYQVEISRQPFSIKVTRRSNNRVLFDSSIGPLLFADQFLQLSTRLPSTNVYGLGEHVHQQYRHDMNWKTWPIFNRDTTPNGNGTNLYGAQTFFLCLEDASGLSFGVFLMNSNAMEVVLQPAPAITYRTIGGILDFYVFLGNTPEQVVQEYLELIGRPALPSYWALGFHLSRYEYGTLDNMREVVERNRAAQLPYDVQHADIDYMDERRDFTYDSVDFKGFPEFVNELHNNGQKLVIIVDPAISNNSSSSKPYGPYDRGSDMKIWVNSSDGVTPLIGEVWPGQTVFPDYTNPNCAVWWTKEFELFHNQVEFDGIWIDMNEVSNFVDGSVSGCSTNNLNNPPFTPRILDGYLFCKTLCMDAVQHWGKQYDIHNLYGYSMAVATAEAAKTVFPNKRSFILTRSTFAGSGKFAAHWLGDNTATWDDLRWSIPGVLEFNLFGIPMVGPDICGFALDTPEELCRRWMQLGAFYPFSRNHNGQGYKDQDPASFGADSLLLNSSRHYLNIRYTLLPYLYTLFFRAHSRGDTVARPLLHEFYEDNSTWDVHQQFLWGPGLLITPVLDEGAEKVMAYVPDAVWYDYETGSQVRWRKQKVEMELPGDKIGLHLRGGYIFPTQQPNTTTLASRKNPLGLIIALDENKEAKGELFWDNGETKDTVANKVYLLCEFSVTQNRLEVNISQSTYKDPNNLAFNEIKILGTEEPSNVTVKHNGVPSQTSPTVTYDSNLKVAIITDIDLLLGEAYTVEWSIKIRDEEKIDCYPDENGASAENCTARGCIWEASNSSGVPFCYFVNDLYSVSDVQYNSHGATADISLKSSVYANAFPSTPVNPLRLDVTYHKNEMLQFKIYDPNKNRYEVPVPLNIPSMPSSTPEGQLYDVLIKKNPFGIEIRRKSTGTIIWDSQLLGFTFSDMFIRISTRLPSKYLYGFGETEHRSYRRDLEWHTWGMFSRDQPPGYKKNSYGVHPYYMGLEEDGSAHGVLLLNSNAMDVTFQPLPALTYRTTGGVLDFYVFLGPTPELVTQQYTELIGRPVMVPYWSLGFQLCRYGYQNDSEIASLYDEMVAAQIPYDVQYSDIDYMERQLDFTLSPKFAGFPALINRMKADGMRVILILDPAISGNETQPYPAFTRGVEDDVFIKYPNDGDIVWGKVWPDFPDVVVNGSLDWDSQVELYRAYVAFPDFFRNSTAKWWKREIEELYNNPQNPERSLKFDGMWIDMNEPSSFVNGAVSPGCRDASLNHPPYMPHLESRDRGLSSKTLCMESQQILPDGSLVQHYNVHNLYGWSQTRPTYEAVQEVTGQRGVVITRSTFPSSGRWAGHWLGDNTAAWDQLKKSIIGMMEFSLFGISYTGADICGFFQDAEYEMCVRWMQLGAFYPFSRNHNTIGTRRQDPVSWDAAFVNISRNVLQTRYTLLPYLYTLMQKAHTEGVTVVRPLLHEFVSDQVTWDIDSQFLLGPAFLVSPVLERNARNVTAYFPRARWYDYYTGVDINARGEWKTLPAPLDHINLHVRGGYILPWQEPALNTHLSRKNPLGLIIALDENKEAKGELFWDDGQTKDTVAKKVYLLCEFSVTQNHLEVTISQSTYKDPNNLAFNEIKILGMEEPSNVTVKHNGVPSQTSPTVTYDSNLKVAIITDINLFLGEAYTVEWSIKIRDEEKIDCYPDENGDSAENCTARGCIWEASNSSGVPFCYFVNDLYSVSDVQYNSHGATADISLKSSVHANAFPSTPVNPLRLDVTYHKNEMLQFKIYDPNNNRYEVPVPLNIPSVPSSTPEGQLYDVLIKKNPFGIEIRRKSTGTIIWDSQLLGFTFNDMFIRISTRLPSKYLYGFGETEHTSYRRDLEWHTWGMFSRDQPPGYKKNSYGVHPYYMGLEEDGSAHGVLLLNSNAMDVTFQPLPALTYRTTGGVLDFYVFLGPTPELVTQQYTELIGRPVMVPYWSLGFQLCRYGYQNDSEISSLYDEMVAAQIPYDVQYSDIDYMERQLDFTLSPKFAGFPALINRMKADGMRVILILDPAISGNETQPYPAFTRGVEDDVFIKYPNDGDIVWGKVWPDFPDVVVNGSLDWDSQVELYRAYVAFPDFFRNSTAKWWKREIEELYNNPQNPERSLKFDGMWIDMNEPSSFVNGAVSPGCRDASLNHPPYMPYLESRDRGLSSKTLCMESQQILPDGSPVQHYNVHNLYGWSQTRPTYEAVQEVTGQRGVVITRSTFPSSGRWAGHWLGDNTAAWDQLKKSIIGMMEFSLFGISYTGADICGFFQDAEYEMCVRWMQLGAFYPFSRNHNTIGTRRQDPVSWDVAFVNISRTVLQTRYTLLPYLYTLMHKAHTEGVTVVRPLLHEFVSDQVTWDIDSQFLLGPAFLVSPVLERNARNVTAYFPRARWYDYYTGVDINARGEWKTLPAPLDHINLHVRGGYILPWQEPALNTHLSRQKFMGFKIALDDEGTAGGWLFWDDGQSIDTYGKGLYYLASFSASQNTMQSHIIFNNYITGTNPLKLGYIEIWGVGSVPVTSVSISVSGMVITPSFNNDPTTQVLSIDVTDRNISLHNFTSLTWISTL

Row | IC50 [µM] | Compound
1 | 128 | COc1ccc2c(c1)OC[C@H]1c3ccc(OC)c(O)c3O[C@@H]21
2 | 174 | COc1ccc2c(c1OC)O[C@H]1c3ccc(O)cc3OC[C@@H]21
3 | 6 | O=c1oc2cc(O)ccc2c2oc3cc(O)ccc3c12 [5,14-dihydroxy-8,17-dioxatetracyclo[8.7.0.0^{2,7}.0^{11,16}]heptadeca-1(10),2,4,6,11(16),12,14-heptaen-9-one]
